Measured values from patent US11142515B2, “Pyrazolyl-ureas as kinase inhibitors” (RESPIVERT LIMITED, priority 2014, dated 2021).

How the values were obtained:
[1] = test system: IL-8 release in d-U937 cells; test: LPS-induced IL-8 release in d-U937 cells; format: cell-based; details: Homo sapiens, dU937, LPS 0.1 μg/mL 4 h
Protocol: (§1) U937 cells, a human monocytic cell line, were differentiated into macrophage-type cells by incubation with PMA (100-200 ng/mL) for 48 to 72 h. Cells were pre-incubated with final […] concentrations of test compound for 2 h and were then stimulated with LPS (0.1 μg/mL; from E. coli: O111:B4, Sigma) for 4 h. The supernatant was collected for determination of TNFα and IL-8 concentrations by sandwich ELISA (Duo-set, R&D systems). […] The relative 50% effective concentration (REC50) was determined from the resultant concentration-response curve. The inhibition of IL-8 production was calculated at each concentration of test compound by comparison with vehicle control.

[2] = test system: TNFα release in d-U937 cells; test: LPS-induced TNFα release in d-U937 cells; format: cell-based; details: Homo sapiens, dU937; read-out: LPS Induced Release TNFα REC50 (dU937); also: relative to 10 µg/mL BIRB-796
Protocol: as §1

[3] = test system: ICAM-1 expression in BEAS2B cells; test: Poly I:C-induced ICAM-1 expression in BEAS2B cells; format: cell-based; details: Homo sapiens, BEAS-2B, read-out: PolyIC/ICAM1 IC50 (BEAS2B)
Protocol: Poly I:C was used in these studies as a simple, RNA virus mimic. Poly I:C-Oligofectamine mixture (2% Oligofectamine±1 μg/mL Poly I:C, 25 μL; Life Technologies and Invivogen Ltd., San Diego, Calif., respectively) was transfected into BEAS2B cells (human bronchial epithelial cells, ATCC). Cells were pre-incubated with final concentrations of test compounds for 2 h and the level of ICAM-1 expression on the cell surface was determined by cell-based ELISA. At a time point 18 h after poly I:C transfection, cells were fixed with 4% formaldehyde in PBS (100 μL) and then endogenous peroxidase was quenched by the addition of washing buffer (100 μL, 0.05% Tween in PBS: PBS-Tween) containing 0.1% sodium azide and 1% hydrogen peroxide. Cells were washed with wash-buffer (3×200 μL). After blocking the wells with 5% milk in PBS-Tween (100 μL) for 1 h, the cells were incubated with anti-human ICAM-1 antibody (50 μL; Cell Signaling Technology, Danvers, Mass.) in 1% BSA PBS overnight at 4° C.
The cells were washed with PBS-Tween (3×200 μL) and incubated with the secondary antibody (100 μL; HRP-conjugated anti-rabbit IgG, Dako Ltd., Glostrup, Denmark). The cells were then incubated with of substrate (50 μL) for 2-20 min, followed by the addition of stop solution (50 μL, 1N H2SO4). The ICAM-1 signal was detected by reading the absorbance at 450 nm against a reference wavelength of 655 nm using a spectrophotometer. The cells ware then washed with PBS-Tween (3×200 μL) and total cell numbers in each well were determined by reading absorbance at 595 nm after Crystal Violet staining (50 μL of a 2% solution in PBS) and elution by 1% SDS solution (100 μL) in PBS. The measured OD 450-655 readings were corrected for cell number by dividing with the OD595 reading in each well. The inhibition of ICAM-1 expression was calculated at each concentration of test compound by comparison with vehicle control.

Hck = target: T1, Hck (Homo sapiens, UniProt P08631); test: Hck enzyme inhibition (Z-LYTE FRET); format: biochemical; details: Table 2A
T1 construct: purchased Life Technologies
Protocol: The enzyme inhibitory activities of compounds disclosed herein were determined by FRET using synthetic peptides labelled with both donor and acceptor fluorophores (Z-LYTE, Life Technologies, Paisley, UK).
The relevant enzyme (1000 ng/mL, 1400 ng/mL or 2000 ng/mL respectively, 2.5 μL) was incubated with the test compound (either 40 μg/mL, 12 μg/mL, 4 μg/mL, 1.2 μg/mL, 0.4 μg/mL, 0.12 μg/mL, 0.04 μg/mL, 0.012 μg/mL, 0.004 μg/mL or 0.0012 μg/mL, 2.5 μL each) for 2 h at RT. The FRET peptides (8 μM, 2.5 μL), and appropriate ATP solutions (2.5 μL, 800 μM for c-Src, and 60 μM ATP for HCK and Syk) were then added to the enzyme/compound mixtures and incubated for 1 h at RT. Development reagent (protease, 5 μL) was added for 1 h prior to detection in a fluorescence microplate reader (EnVision, Perkin Elmer).
In all cases, the site-specific protease cleaves non-phosphorylated peptide only and eliminates the FRET signal. Phosphorylation levels of each reaction were calculated using the ratio of coumarin emission (donor) over fluorescein emission (acceptor), for which low ratios indicate high phosphorylation and high ratios indicate low phosphorylation levels.

T1 sequence (P08631 22-526): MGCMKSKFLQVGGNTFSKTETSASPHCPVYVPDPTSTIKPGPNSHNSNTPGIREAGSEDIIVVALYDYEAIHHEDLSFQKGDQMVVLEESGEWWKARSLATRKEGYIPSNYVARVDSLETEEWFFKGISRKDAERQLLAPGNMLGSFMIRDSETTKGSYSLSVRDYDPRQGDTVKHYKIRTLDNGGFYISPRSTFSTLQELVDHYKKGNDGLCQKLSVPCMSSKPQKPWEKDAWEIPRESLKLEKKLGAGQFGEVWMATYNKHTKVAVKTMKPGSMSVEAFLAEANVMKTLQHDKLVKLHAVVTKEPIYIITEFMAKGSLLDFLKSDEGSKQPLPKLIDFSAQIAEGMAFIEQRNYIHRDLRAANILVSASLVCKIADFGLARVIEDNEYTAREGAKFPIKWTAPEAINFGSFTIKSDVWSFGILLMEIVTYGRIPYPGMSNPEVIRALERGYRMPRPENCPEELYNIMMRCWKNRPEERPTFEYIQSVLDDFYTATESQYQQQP

SMILES	IC50 [1]	EC50 [2]	IC50 [3]	IC50 (Hck)
Cc1ccc(-n2nc(C(C)(C)C)cc2NC(=O)Nc2ccc(OCc3ccnc(Nc4cncc(C5CC5)n4)c3)c3ccccc23)cc1 [Example 15]	1.9 nM	2.1 nM	15.7 nM	15 nM
COc1ccc(-n2nc(C(C)(C)C)cc2NC(=O)Nc2ccc(OCc3ccnc(Nc4cnccn4)c3)c3ccccc23)cc1 [Example 38]	9.6 nM	2.7 nM	75.5 nM	60 nM
CNC(=O)c1cnc(Nc2cc(COc3ccc(NC(=O)Nc4cc(C(C)(C)C)nn4-c4ccc(C)cc4)c4ccccc34)ccn2)cn1 [Example 7, 5-((4-(((4-(3-(3-(tert-Butyl)-1-(p-tolyl)-1H-pyrazol-5-yl)ureido)naphthalen-1-yl)oxy)methyl)pyridin-2-yl)amino)-N-methylpyrazine-2-carboxamide]	16.7 nM	10.7 nM	> 1520 nM	64 nM
Cc1ccc(-n2nc(C(C)(C)C)cc2NC(=O)Nc2ccc(OCc3ccnc(Nc4cnccn4)c3)c3ccccc23)cc1C [Example 51]	25.7 nM	2.2 nM	281 nM	36 nM
COc1ccc(-n2nc(C(C)(C)C)cc2NC(=O)Nc2ccc(OCc3ccnc(Nc4cnccn4)c3)c3ccccc23)cc1C [Example 39]	12.8 nM	3.4 nM	46.6 nM	31 nM
Cc1ccc(-n2nc(C(C)(C)C)cc2NC(=O)Nc2ccc(OCc3ccnc(Nc4cnc(C(=O)N5CCCC5)cn4)c3)c3ccccc23)cc1 [Example 36]	2.8 nM	1.6 nM	188 nM	48 nM
Cc1ccc(-n2nc(C(C)(C)C)cc2NC(=O)Nc2ccc(OCc3ccnc(Nc4cnc(C)c(C)n4)c3)c3ccccc23)cc1 [Example 4, 1-(3-(tert-Butyl)-1-(p-tolyl)-1H-pyrazol-5-yl)-3-(4-((2-((5,6-dimethylpyrazin-2-yl)amino)pyridin-4-yl)methoxy)naphthalen-1-yl)urea]	25.4 nM	25.6 nM	> 1600 nM	111 nM
CC(C)(C)c1cc(NC(=O)Nc2ccc(OCc3ccnc(Nc4cncc(C5CC5)n4)c3)c3ccccc23)n(-c2ccc(O)cc2)n1 [Example 34]	8.3 nM	5.4 nM	41.1 nM	7 nM
Cc1ccc(-n2nc(C(C)(C)C)cc2NC(=O)Nc2ccc(OCc3ccnc(Nc4cnc(CO)cn4)c3)c3ccccc23)cc1 [Example 10, 1-(3-(tert-Butyl)-1-(p-tolyl)-1H-pyrazol-5-yl)-3-(4-((2-((5-(hydroxymethyl)pyrazin-2-yl)amino)pyridin-4-yl)methoxy)naphthalen-1-yl)urea]	15.3 nM	2.8 nM	32.5 nM	16 nM
COc1ccc(-n2nc(C(C)(C)C)cc2NC(=O)Nc2ccc(OCc3ccnc(Nc4cnccn4)c3)c3ccccc23)cc1Cl [Example 46]	268 nM	0.7 nM	212 nM	68 nM
Cc1ccc(-n2nc(C(C)(C)C)cc2NC(=O)Nc2ccc(OCc3ccnc(Nc4cncc(CO)n4)c3)c3ccccc23)cc1 [Example 21]	7.9 nM	0.6 nM	76.5 nM	12 nM
Cc1ccc(-n2nc(C(C)(C)C)cc2NC(=O)Nc2ccc(OCc3ccnc(Nc4cnc(CC(=O)N(C)C)cn4)c3)c3ccccc23)cc1 [Example 29]	8.5 nM	4.2 nM	43 nM	10 nM
Cc1ccc(-n2nc(C(C)(C)C)cc2NC(=O)Nc2ccc(OCc3ccnc(Nc4cncc(C5CCCC5)n4)c3)c3ccccc23)cc1 [Example 48]	16.7 nM	0.3 nM	92.5 nM	133 nM
CCc1ccc(-n2nc(C(C)(C)C)cc2NC(=O)Nc2ccc(OCc3ccnc(Nc4cnccn4)c3)c3ccccc23)cc1 [Example 42]	18.3 nM	4.3 nM	197 nM	89 nM
COCCNC(=O)c1cnc(Nc2cc(COc3ccc(NC(=O)Nc4cc(C(C)(C)C)nn4-c4ccc(C)s4)c4ccccc34)ccn2)cn1 [Example 43]	41.4 nM	16.8 nM	> 1420 nM	53 nM
Cc1ccc(-n2nc(C(C)(C)C)cc2NC(=O)Nc2ccc(OCc3ccnc(Nc4cncc(C5CCC5)n4)c3)c3ccccc23)cc1 [Example 47]	15.6 nM	5.8 nM	151 nM	110 nM
CC(C)c1ccc(-n2nc(C(C)(C)C)cc2NC(=O)Nc2ccc(OCc3ccnc(Nc4cnccn4)c3)c3ccccc23)cc1 [Example 41]	43.8 nM	3 nM	> 1600 nM	1430 nM
COc1ccc(-n2nc(C(C)(C)C)cc2NC(=O)Nc2ccc(OCc3ccnc(Nc4cnccn4)c3)c3ccccc23)cn1 [Example 12]	9.3 nM	16.8 nM	242 nM	39 nM
COc1cncc(Nc2cc(COc3ccc(NC(=O)Nc4cc(C(C)(C)C)nn4-c4ccc(C)cc4)c4ccccc34)ccn2)n1 [Example 18]	2.1 nM	2.6 nM	97.8 nM	41 nM
Cc1ccc(-n2nc(C(C)(C)C)cc2NC(=O)Nc2ccc(OCc3ccnc(Nc4cnc(C(=O)N(C)C)cn4)c3)c3ccccc23)cc1 [Example 9, 5-((4-(((4-(3-(3-(tert-Butyl)-1-(p-tolyl)-1H-pyrazol-5-yl)ureido)naphthalen-1-yl)oxy)methyl)pyridin-2-yl)amino)-N,N-dimethylpyrazine-2-carboxamide]	8.8 nM	1.3 nM	72.5 nM	1500 nM
Cc1cccc(-n2nc(C(C)(C)C)cc2NC(=O)Nc2ccc(OCc3ccnc(Nc4cnccn4)c3)c3ccccc23)c1 [Example 40]	11.7 nM	3 nM	637 nM	23 nM
Cc1ccc(-n2nc(C(C)(C)C)cc2NC(=O)Nc2ccc(OCc3ccnc(Nc4cnc(C)cn4)c3)c3ccccc23)cc1 [Example 19]	1.4 nM	13.2 nM	340 nM	53 nM
Cc1ccc(-n2nc(C(C)(C)C)cc2NC(=O)Nc2ccc(OCc3ccnc(Nc4cncc(N(C)C)n4)c3)c3ccccc23)cc1 [Example 14]	5.5 nM	2.9 nM	64.3 nM	6 nM
Cc1ccc(-n2nc(C(C)(C)C)cc2NC(=O)Nc2ccc(OCc3ccnc(Nc4cncc(CC(N)=O)n4)c3)c3ccccc23)cc1 [Example 32]	15 nM	13 nM	65.6 nM	7 nM
Cc1ccc(-n2nc(C(C)(C)C)cc2NC(=O)Nc2ccc(OCc3ccnc(Nc4cnc(CO)cn4)c3)c3ccccc23)s1 [Example 26]	14.6 nM	4.5 nM	973 nM	20 nM
CNC(=O)Cc1cncc(Nc2cc(COc3ccc(NC(=O)Nc4cc(C(C)(C)C)nn4-c4ccc(C)cc4)c4ccccc34)ccn2)n1 [Example 28]	29.9 nM	2.7 nM	75.5 nM	11 nM
CC(C)(C)c1cc(NC(=O)Nc2ccc(OCc3ccnc(Nc4cncc(C5CC5)n4)c3)c3ccccc23)n(-c2ccc(CO)cc2)n1 [Example 25]	5.8 nM	1.4 nM	13.1 nM	5 nM
